“And” between values parts separate entries of the source, which are not always exact repeats. Equal entries are not always repeated.
What was measured:
[1] = tested on: lung carcinoma; assay: PET in a lung cancer patient; type: in vivo, human
[2] = Plasma pharmacokinetics in human patients; type: in vivo; settings: order Patient#1, #2, #3, Mean
Description: For the PET study, two intravenous catheters (heparin-locked) were placed in the subject for radiopharmaceutical administration and for blood sampling. […] For [^124I]-PU-HZ151 injection and blood sampling, separate peripheral intravenous lines were placed. […] For quantification of radioprobe clearance and metabolism, plasma samples were radioassayed by well counter and radioHPLC using standard techniques. […] Well counting obtained a minimum of 10,000 counts per specimen correcting for background activity and radioactive decay from time of tracer injection. An I-124 standard was assayed on the well counter to obtain a calibration factor for converting sample scintillation count rates (in cpm) to millicurie (mCi) of activity. […] This value was multiplied by the patient body weight (g) to convert to standard uptake values (SUV) for comparison with tissue SUV values measured by PET, also calculated as the ID per mL tissue volume, normalized to patient body weight (g). Blood and plasma concentration data were separately plotted versus time.

[3] = PET biodistribution in human patients; type: in vivo; settings: human, in vivo
Description: To evaluate the brain permeability of PU-HZ151 into the human brain, we produced the [^124I]-labeled derivative and performed serial PET imaging studies of human patients (n = 3; NCT03371420), and derived time-activity (i.e. standard uptake values (SUV) versus time post-administration) curves for the brain and various other tissues (Fig. 2b). PET data obtained for [^124I]-labeled PU-H71 (NCT01269593 and ref. [39]) were used for comparison. […] The AUC values recorded for [^124I]-PU-HZ151 in the human brain post-single injection are at par with what was measured in the human muscle and lung, supportive of uptake of PU-HZ151 into the human brain (Fig. 2b). Magnetic resonance imaging (MRI), by offering structural and soft tissue resolution, confirmed the presence of PU-HZ151 in the brain tissue (Fig. 2d). […] The secondary outcome of the trial was to measure adverse events following administration of the probe. Safety of [^124I]-PU-HZ151 in human subjects was assessed by evaluation of the incidence, nature, and severity of adverse events and serious adverse events (Supplementary Note 2).
[^124I]-PU-HZ151 and [^124I]-PU-H71 were synthesized in-house by the institutional cyclotron core facility at high specific activity. Analyses of the epichaperome by positron emission tomography (PET-CT) were performed as previously reported. In brief, research PET-CT was performed using an integrated PET-CT scanner (Discovery DSTE, GE Healthcare). CT scans for attenuation correction and anatomic coregistration were performed before tracer injection. Patients received 5 mCi of [^124I]-PU-HZ151 or [^124I]-PU-H71 by peripheral vein over 2 min. PET data were reconstructed using a standard ordered subset expected maximization iterative algorithm. Emission data were corrected for scatter, attenuation, and decay. PET scans were performed 0.5, 3, and 24 h after tracer administration. Numbers in the scale bar indicate upper and lower standardized uptake value (SUV) thresholds that define pixel intensity on PET images. SUV is a pixel value, derived from PET measurements of in vivo radioactivity, quantified as the fraction of the radioactive dose injected found in a cubic centimeter of measured tissue multiplied (ie, normalized) by patient body weight (grams). Maximum Intensity Projection (MIP) 3D images were constructed from the voxels with maximum intensity that fell in the way of parallel rays traced from the viewpoint to the plane of projection. At each pixel the highest data value encountered along the corresponding viewing ray was determined. MRI scans were obtained as part of routine clinical care using hardware and standard data acquisition and processing methods. MRI was obtained using a 1.5T magnet (Signa HDxt, GE Healthcare, Milwaukee, WI). […] Gadopentetate dimeglumine (Magnevist, HealthCare Pharmaceuticals Inc.) was injected though a peripheral angiocatheter at a standard dose (0.2 mL kg^−1 body weight, 40 mL, 2 cc s^−1). For precise localization of tracer uptake to specific neuroanatomical structures, PET brain images were fused to MRI brain images using the Integrated Registration application of the AW Suite software package (GE Healthcare, Milwaukee, Wisconsin, USA).

[4] = Adverse events in human patients (NCT03371420); type: in vivo; settings: single microdose iv
[5] = tested on: GBM#5; assay: PET of intracranial tumors; type: in vivo, mouse; settings: microdose iv
Description: (§1) To test if our probes can detect and differentiate in vivo the epichaperome-dependent tumors from those that are not, we next performed intracranial xenotransplantation of GSCs from epichaperome-high (GSC#8), -medium (GSC#7; GSC#19) and -negative (GSC#5) specimens. For comparison we used intracranially xenotransplanted MDA-MB-468 tumors (Fig. 7a).
(§2) Orthotopic GBM xenografts in mice were established by injection of 5 × 10^5 cells in 2 μL PBS. For PET analyses, GSCs were injected into the striatum. Boreholes were made using a small hand drill. Mice were imaged with MRI (typically ~ 2–3 weeks after injection), and – if tumors were visible on MRI – they were imaged by micro-PET using the [^124I]-radiolabeled PU-HZ151. When mice started showing symptoms of progressing GBM, they received a microdose of [^124I]-PU-HZ151 and serial PET scans were performed at 20 mins, 6, 24, 48, 72, and 96 h post tracer administration using a dedicated small-animal PET scanner (Focus 120 microPET; Siemens Medical Solutions, USA, formerly Concorde Microsystems, Knoxville, TN). Mice were maintained under 2% isoflurane (Baxter Healthcare, Deerfield, IL) anesthesia in oxygen at 2 L min^−1 during the entire scanning period. To reduce the thyroid uptake of free iodide arising from metabolism of tracer, mice received 0.01% potassium iodide solution in their drinking water starting 48 h prior to tracer administration. For PET imaging, each mouse was administered [^124I]-PU-HZ151 (15 µCi g^−1, 3 µCi µL^−1 in saline, Hospira, 0.9% sodium chloride in water) via the tail vein or ip. Approximately 5 min prior to PET acquisition, mice were anesthetized by inhalation of a mixture of isoflurane (Baxter Healthcare, Deerfield, IL, USA; 2% isoflurane, 2 L min^−1 medical air) and positioned on the scanner bed. Anesthesia was maintained using a 1% isoflurane-O2 mixture. PET data for each mouse was recorded using static scans of 15 min and acquired at the indicated times post injection. Quantification and %ID g^−1 values were calculated by manually drawing regions of interests in three different frames and determining the average values using ASI Pro VM™ MicroPET Analysis software (Siemens Medical Solutions, Knoxville, TX).

[6] = tested on: GBM#8; assay: PET of intracranial tumors; type: in vivo, mouse; settings: microdose iv
Description: as §1, §2

[7] = tested on: GBM#19; assay: PET of intracranial tumors; type: in vivo, mouse; settings: microdose iv
Description: as §1, §2

[8] = tested on: GBM#7; assay: PET of intracranial tumors; type: in vivo, mouse; settings: microdose iv
Description: as §1, §2

[9] = tested on: intracranial MDA-MB-468 tumors; assay: PET of intracranial tumors; type: in vivo, mouse; design: unit: %ID/g (percent injected dose per gram); settings: 96 h, mean n=5
[10] = tested on: intracranial MDA-MB-468 tumors; assay: PET of intracranial tumors; type: in vivo, mouse; design: radioactivity, Blood / radioactivity, Brain, normal / radioactivity, Tumor - intracranial: unit: %ID/g (percent injected dose per gram); settings: for radioactivity, Blood / radioactivity, Brain, normal / radioactivity, Tumor - intracranial: mean n=5
Description: We next investigated if the CNS-directed epichaperome probes detect epichaperome positivity and engage the target in brain tumors. MDA-MB-468 is a triple-negative breast cancer cell line, an aggressive breast cancer subtype with high propensity of metastasizing to the brain. We therefore initiated our studies with intracranial MDA-MB-468 tumors. We imaged the real-time whole-body distribution of [^124I]-labeled PU-HZ151 ([^124I]-PU-HZ151) between 1 h and 72 h to observe that PU-HZ151 was evenly distributed throughout the body with brain exposure equaling that of other tissues and non-metabolizing organs (see PET image at 1 h, Fig. 4a). A rapid clearance from HSP90 (present throughout the brain) but not epichaperome (present only in the tumor), provided unambiguous visualization and quantitation of epichaperome positivity through PET imaging. […] We also confirmed target positivity, and specific target and probe co-localization, through radiography and associated hematoxylin and eosin staining of brain tissue (Fig. 4c–e).
as §2

CC(C)(C)CNCCn1c(Sc2cc3c(cc2[124I])OCO3)nc2c(N)ncnc21 [[124I]-PU-HZ151]
radioactivity, Brain-gray ([1]; 0.5 h): 1.16 SUV | radioactivity, Lung ([1]; 0.5 h): 0.56 SUV | radioactivity, Muscle ([1]; 0.5 h): 0.72 SUV | radioactivity, Tumor ([1]; 0.5 h): 2.52 SUV | radioactivity, Brain-gray ([1]; 3 h): 0.41 SUV | radioactivity, Lung ([1]; 3 h): 0.29 SUV | radioactivity, Muscle ([1]; 3 h): 0.32 SUV | radioactivity, Tumor ([1]; 3 h): 2.1 SUV | radioactivity, Brain-gray ([1]; 24 h): 0.03 SUV | radioactivity, Lung ([1]; 24 h): 0.07 SUV | radioactivity, Muscle ([1]; 24 h): 0.09 SUV | radioactivity, Tumor ([1]; 24 h): 0.79 SUV | 2nd Component Half-time [2]: 1.87 h and 2.97 h and 2.35 h | 2nd Component Half-time ([2]; then text value): 1.87 h and 2.97 h and 2.2 h and 2.35 h and 2.35 ± 0.563 h | area under the curve (AUC) ([2]; plasma): 0.0225 (%ID g-1)h and 0.0199 (%ID g-1)h and 0.0127 (%ID g-1)h and 0.0184 (%ID g-1)h | biological half-life in normal brain tissue [3]: less than 0.5 hours | probe-related toxicity [4]: No radioiodinated probe-related toxicity was evident | AUC^tumor/blood [5]: 143 | AUC^tumor/blood [6]: 80 | AUC^tumor/blood [7]: 444 | AUC^tumor/blood [8]: 893 | radioactivity, Blood [9]: 0.0050 | radioactivity, Blood ([10]; 1 h): 1.8445 | radioactivity, Brain, normal ([10]; 1 h): 0.4287 | radioactivity, Tumor - intracranial ([10]; 1 h): 2.4287 | radioactivity, Blood ([10]; 2 h): 0.7280 | radioactivity, Brain, normal ([10]; 2 h): 0.0550 | radioactivity, Blood ([10]; 6 h): 0.2100 | radioactivity, Brain, normal ([10]; 6 h): 0.1400 | radioactivity, Tumor - intracranial ([10]; 6 h): 0.6541 | radioactivity, Blood ([10]; 24 h): 0.0110 | radioactivity, Brain, normal ([10]; 24 h): 0.0010 | radioactivity, Tumor - intracranial ([10]; 24 h): 0.1284 | radioactivity, Blood ([10]; 48 h): 0.0060 | radioactivity, Brain, normal ([10]; 48 h): 0.0000 | radioactivity, Tumor - intracranial ([10]; 48 h): 0.0885 | radioactivity, Blood ([10]; 72 h): 0.0040 | radioactivity, Brain, normal ([10]; 72 h): 0.0000 | radioactivity, Tumor - intracranial ([10]; 72 h): 0.0351 | radioactivity, Brain, normal ([10]; 96 h): 0.0000 | AUC^tumor/blood ([10]; PET, microdose iv): 1303
